Laboratory results: US4452778A, “Synergistic antibacterial compositions and method of treatment of infections caused by multiple antibiotic-resistant organisms” (Eli Lilly and Company, priority 1981, dated 1984)
Read-outs that look alike come from different tables or passages of the source.

What was measured:
E. coli = assay: Checkerboard broth dilution synergy study (mic); type: cell-based; details: Table II; for MIC: Escherichia coli, read-out: mic, drug alone
Acinetobacter sp. = assay: Checkerboard broth dilution synergy study (mic); type: cell-based; details: Table II; for MIC: Acinetobacter, read-out: mic, drug alone
Proteus mirabilis = assay: Checkerboard broth dilution synergy study (mic); type: cell-based; details: Table II, strain Allen
Klebsiella pneumoniae = assay: Checkerboard broth dilution synergy study (mic); type: cell-based; details: Table II; for MIC: Klebsiella pneumoniae, read-out: mic, drug alone
[1] = single 1 mg/kg (i.m.), healthy volunteers; cited from earlier work
Serratia marcescens = assay: Checkerboard broth dilution synergy study (mic); type: cell-based; details: Table II; for MIC: Serratia marcescens, read-out: mic, drug alone
Pseudomonas aeruginosa = assay: Checkerboard broth dilution synergy study (mic); type: cell-based; details: Table II; for MIC: Pseudomonas aeruginosa, read-out: mic, drug alone
Pseudomonas maltophilia = assay: Checkerboard broth dilution synergy study (mic); type: cell-based; details: Table II; for MIC: Stenotrophomonas maltophilia, read-out: mic, drug alone
E. cloacae = assay: Checkerboard broth dilution synergy study (mic); type: cell-based; details: Table II; for MIC: Enterobacter cloacae, read-out: mic, drug alone
Proteus rettgeri = assay: Checkerboard broth dilution synergy study (mic); type: cell-based; details: Table II, strain 65
Proteus vulgaris = assay: Checkerboard broth dilution synergy study (mic); type: cell-based; details: Table II; for MIC: Proteus vulgaris, read-out: mic, drug alone

Question: Which results are given for `NC[C@H]1O[C@H](O[C@H]2[C@H](O)[C@@H](O[C@H]3O[C@H](CO)[C@@H](O)[C@H](N)[C@H]3O)[C@H](N)C[C@@H]2N)[C@H](N)C[C@@H]1O` [tobramycin]?
Answer: MIC (E. coli; strain 46-2): > 64 µg/mL; MIC (E. coli; strain 77-3): 64 µg/mL; MIC (E. coli; strain 136-3): 64 µg/mL; MIC (E. coli; strain 1260): > 64 µg/mL; MIC (E. coli; strain 1262): 16 µg/mL; MIC (E. coli; strain Briley): 4 µg/mL; MIC (E. coli; strain Dill): > 64 µg/mL; mic of each drug in combination I + T (E. coli; strain 46-2): 4 µg/mL; mic of each drug in combination I + T (E. coli; strain 77-3): 0.25 µg/mL; mic of each drug in combination I + T (E. coli; strain 136-3): 4 µg/mL; mic of each drug in combination I + T (E. coli; strain 1253): 4 µg/mL; mic of each drug in combination I + T (E. coli; strain 1260): 0.5 µg/mL; mic of each drug in combination I + T (E. coli; strain 1262): 8 µg/mL; mic of each drug in combination I + T (E. coli; strain 1415): 8 µg/mL; mic of each drug in combination I + T (E. coli; strain Briley): 8 µg/mL; mic of each drug in combination I + T (E. coli; strain Dill): 4 µg/mL; MIC (Acinetobacter sp.; strain 28-1): 0.5 µg/mL; MIC (Acinetobacter sp.; strain 28-2): 4 µg/mL; MIC (Acinetobacter sp.; strain 106): 1 µg/mL; MIC (Acinetobacter sp.; strain 107): 4 µg/mL; MIC (Acinetobacter sp.; strain 109): 1 µg/mL; mic of each drug in combination I + T (Acinetobacter sp.; strain 28-1): 0.5 µg/mL; mic of each drug in combination I + T (Acinetobacter sp.; strain 28-2): 0.5 µg/mL; mic of each drug in combination I + T (Acinetobacter sp.; strain 106): 0.5 µg/mL; mic of each drug in combination I + T (Acinetobacter sp.; strain 107): 0.5 µg/mL; mic of each drug in combination I + T (Acinetobacter sp.; strain 109): 0.5 µg/mL; MIC (Proteus mirabilis; Proteus mirabilis, read-out: mic, drug alone): 32 µg/mL; mic of each drug in combination I + T (Proteus mirabilis): 1 µg/mL; MIC (Klebsiella pneumoniae; strain 130): 16 µg/mL; MIC (Klebsiella pneumoniae; strain 214-1): 32 µg/mL; MIC (Klebsiella pneumoniae; strain 463): 16 µg/mL; MIC (Klebsiella pneumoniae; strain 512): > 64 µg/mL; MIC (Klebsiella pneumoniae; strain 933): 32 µg/mL; MIC (Klebsiella pneumoniae; strain 1204-2): > 64 µg/mL; mic of each drug in combination I + T (Klebsiella pneumoniae; strain 130): 0.5 µg/mL; mic of each drug in combination I + T (Klebsiella pneumoniae; strain 214-1): 0.03 µg/mL; mic of each drug in combination I + T (Klebsiella pneumoniae; strain 463): < 0.015 µg/mL; mic of each drug in combination I + T (Klebsiella pneumoniae; strain 512): 0.06 µg/mL; mic of each drug in combination I + T (Klebsiella pneumoniae; strain 933): 0.5 µg/mL; mic of each drug in combination I + T (Klebsiella pneumoniae; strain 1204-2): 0.03 µg/mL; peak serum concentrations [1]: 4.4 µg/mL; MIC (Serratia marcescens; strain 100): 16 µg/mL; MIC (Serratia marcescens; strain 302-2): 16 µg/mL; MIC (Serratia marcescens; strain 796): 64 µg/mL; MIC (Serratia marcescens; strain 14142): > 64 µg/mL; MIC (Serratia marcescens; strain Townsend): 32 µg/mL; mic of each drug in combination I + T (Serratia marcescens; strain 100): 8 µg/mL; mic of each drug in combination I + T (Serratia marcescens; strain 302-2): 1 µg/mL; mic of each drug in combination I + T (Serratia marcescens; strain 796): 16 µg/mL; mic of each drug in combination I + T (Serratia marcescens; strain 14142): 4 µg/mL; mic of each drug in combination I + T (Serratia marcescens; strain Townsend): 0.5 µg/mL; MIC (Pseudomonas aeruginosa; strain 84): 8 µg/mL; MIC (Pseudomonas aeruginosa; strain 366): 4 µg/mL; MIC (Pseudomonas aeruginosa; strain 424): 64 µg/mL; MIC (Pseudomonas aeruginosa; strain 447): 64 µg/mL; MIC (Pseudomonas aeruginosa; strain 1484): 64 µg/mL; MIC (Pseudomonas aeruginosa; strain Davis): > 64 µg/mL; mic of each drug in combination I + T (Pseudomonas aeruginosa; strain 84): 1 µg/mL; mic of each drug in combination I + T (Pseudomonas aeruginosa; strain 366): 2 µg/mL; mic of each drug in combination I + T (Pseudomonas aeruginosa; strain 424): 0.5 µg/mL; mic of each drug in combination I + T (Pseudomonas aeruginosa; strain 447): < 0.5 µg/mL; mic of each drug in combination I + T (Pseudomonas aeruginosa; strain 1484): 2 µg/mL; mic of each drug in combination I + T (Pseudomonas aeruginosa; strain Davis): 1 µg/mL; MIC (Pseudomonas maltophilia; strain 10): 64 µg/mL; MIC (Pseudomonas maltophilia; strain 11): 4 µg/mL; MIC (Pseudomonas maltophilia; strain 505): 32 µg/mL; mic of each drug in combination I + T (Pseudomonas maltophilia; strain 10): 8 µg/mL; mic of each drug in combination I + T (Pseudomonas maltophilia; strain 11): 2 µg/mL; mic of each drug in combination I + T (Pseudomonas maltophilia; strain 505): 0.5 µg/mL; MIC (E. cloacae; strain 1246): 16 µg/mL; MIC (E. cloacae; strain 1253): 32 µg/mL; MIC (E. cloacae; strain 1415): 32 µg/mL; MIC (E. cloacae; strain B293): > 64 µg/mL; mic of each drug in combination I + T (E. cloacae; strain 1246): 0.5 µg/mL; mic of each drug in combination I + T (E. cloacae; strain 1253): 2 µg/mL; mic of each drug in combination I + T (E. cloacae; strain 1415): < 0.015 µg/mL; mic of each drug in combination I + T (E. cloacae; strain B293): 8 µg/mL; MIC (Proteus rettgeri; Providencia rettgeri, read-out: mic, drug alone): 64 µg/mL; mic of each drug in combination I + T (Proteus rettgeri): 1 µg/mL; MIC (Proteus vulgaris; strain 363): 64 µg/mL; MIC (Proteus vulgaris; strain Shide): 32 µg/mL; mic of each drug in combination I + T (Proteus vulgaris; strain 363): 1 µg/mL; mic of each drug in combination I + T (Proteus vulgaris; strain Shide): 1 µg/mL
